Data published in PubChem BioAssay AID179 (DTP/NCI, 2004).
Where “and” joins values, the source holds several entries; their conditions need not be identical. Identical values can stand only once. Calls of active or inactive are those of the source.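 The calls were made as follows: active = compounds giving half or more protection of infected cells from virus-caused growth loss, again on retest; inactive = the rest.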 Where a SMILES comes first, the peptide text is derived from it. The star is where a group is joined. Cbz = O=C(OCc1ccccc1)*; Boc = CC(C)(C)OC(=O)*; OBn = c1ccc(CO*)cc1; Bn = c1ccc(C*)cc1; OtBu = CC(C)(C)O*

System: CEM cells HIV-1 protection, formazan growth assay
Assay: NCI AIDS Antiviral Assay
Conditions: for IC50: measured here: growth of uninfected CEM cells
Summary of the method: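 CEM (human) cells, HIV-1 infected vs uninfected, 5-point dosing, formazan growth read-out. Retest threshold 50% protection.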

| Structure (SMILES) | EC50 [µM] | IC50 | outcome |
| --- | --- | --- | --- |
| COc1cc(OC)c2c(=O)c3cccc(C)c3n(C)c2c1 | > 200 | 95.5 µM | – |
| Cn1cc(NC(=O)c2cc(NC(=O)Nc3cc(C(=O)Nc4cc(C(=O)Nc5ccc6cc(S(=O)(=O)O)cc(S(=O)(=O)O)c6c5)n(C)c4)n(C)n3)nn2C)cc1C(=O)Nc1ccc2cc(S(=O)(=O)O)cc(S(=O)(=O)O)c2c1 | 6.17 | > 100 µM | – |
| O=c1[nH]oc2ccccc12 | > 200 | > 200 µM | – |
| N#CC1CC2(C(=O)C1=O)c1ccccc1-c1ccccc12 (stereo not given) | – | – | inactive |
| CCOC(=O)/C(=C/c1ccc2ccccc2c1)P(=O)(OCC)OCC | > 100 | 24 µM | – |
| O=C1CCCCCCCCCCC(=O)C2CCOCCOCCOCCC1Cc1cccc(n1)C2 | > 138 | > 138 µM | – |
| CCN1C[C@]2(C)CCC(OC)C34[C@@H]1[C@@]1(OCO[C@@]15C[C@H](OC)[C@@H]1C[C@]3(O)[C@@H]5C1OC(C)=O)[C@@H](OC(C)=O)[C@@H]42 (stereo not given in full) | – | – | inactive |
| CCN(CC)CCNC(=O)c1nn(C)c(=S)[nH]c1=S | – | – | inactive |
| CC1=C(c2ccccc2)C(c2ccccc2)=C(c2ccccc2)C2(c3ccccc3)C(=O)C(C)CN12 (stereo not given) | > 5.75 | > 5.75 µM | – |
| O=C1c2c(c3c4ccccc4n4c3c3c2c2ccccc2n3C/C=C\C4)C(=O)N1Cc1ccccc1 | – | – | inactive |
| CSc1n(CC(=O)OC(C)(C)C)nc[n+]1N | > 200 | > 200 µM | – |
| [O-][n+]1cc(SCc2ccccc2)ncc1SCc1ccccc1 | > 200 | > 200 µM | – |
| COC(=O)C1(C)C=C(Nc2ccccc2)C(=O)N1c1ccccc1 (stereo not given) | > 6.17 | > 6.17 µM | – |
| O=[N+]([O-])c1cccc(-c2csc(N=Nc3c(O)[nH]c4ccccc34)n2)c1 | > 200 | > 200 µM | – |
| Cc1ccc(NC(=S)/N=C/C(C(=O)c2ccccc2)=C(\O)c2ccccc2)c(C)c1 | > 200 | 31.6 µM | – |
| N#CNC(N)=Nc1cc2ccccc2c2ccccc12 | > 100 | 4.27 µM | – |
| CC(C)=CCc1c(O)c(CC2=C(O)C(C)=C(O)C(CC=C(C)C)(C(=O)C(C)C)C2=O)c(O)c(C(=O)C(C)C)c1O (stereo not given) | > 100 | 4.57 µM | – |
| COc1cc(-c2nc(SC)nc3c2CCc2ccccc2-3)cc(OC)c1OC | > 200 | > 200 µM | – |
| COC1/C=C/OC2(C)Oc3c(C)c(O)c4c(c3C2=O)C(=O)C=C(NC(=O)/C(C)=C\C=C\C(C)C(OC=O)C(C)C(O)C(C)C(OC(C)=O)C1C)C4=O (stereo not given) | > 200 | 7.41 µM | – |
| O=c1c2ccccc2c(=O)c2c1c1c(=O)c3ccccc3c(=O)c1c1c(=O)c3ccccc3c(=O)c21 | > 200 | > 200 µM | – |
| COC(=O)C(Cc1ccccc1)NC(=O)C(CNC(=O)OCc1ccccc1)C(=O)OCc1ccccc1 (stereo not given) | > 200 | > 200 µM and 148 µM | – |

| Structure (SMILES) | EC50 [µM] | IC50 | outcome |
| --- | --- | --- | --- |
| COc1cc(SSc2ccc(N)c(OC)c2)ccc1N | > 200 | 26.3 µM | – |
| C=CC(C)(C)n1cc(C2=C3OC(=O)C(c4cn(C(C)(C)C=C)c5ccccc45)=C3OC2=O)c2ccccc21 | > 200 | > 200 µM | – |
| N#CC(/C=C/c1ccccc1)Nc1ccccc1 (stereo not given) | > 22.4 | > 22.4 µM | – |
| COC(=O)C1(C(=O)OC)CC2=C(S(=O)(=O)c3ccccc3)C[C@@H](C#N)[C@H]2C1 | > 200 | 110 µM | – |
| Cc1cccc2c1C(=O)OC2(C)c1cccc2ccccc12 (stereo not given) | – | – | inactive |
| CN1C(=O)Cc2ccccc21 | > 200 | 151 µM | – |
| C[N+]1(CCCC(O)CC[N+]2(C)CCCC2)CCCC1 (stereo not given) | – | – | inactive |
| CN(C)CCOc1ccc([N+](=O)[O-])c2cccnc12 | > 100 | 50.1 µM | – |
| CCCCn1c(C)c(C)c2c1NN=C(C#N)S2(=O)=O | > 200 | > 200 µM | – |
| Cc1ccc(-c2nnc(CCCCCCCCc3nnc(-c4ccc(C)cc4O)n3N)n2N)c(O)c1 | > 200 | 120 µM | – |
| O=C(Nc1nc2ccccc2s1)c1cc([N+](=O)[O-])ccc1Cl | > 200 | 3.8 µM | – |
| O=[N+]([O-])c1cc(S(=O)(=O)c2ccc(Cl)c([N+](=O)[O-])c2)ccc1Cl | > 200 | 2.34 µM | – |
| N.N.O=C([O-])P(=O)([O-])[O-].[Na+].[Pt+4] | > 4170 | 155 µM | – |
| O=C1OCC(CN2CCC(n3c(=O)[nH]c4ccccc43)CC2)=C1c1ccccc1 | > 200 | 30.9 µM | – |
| O=C(O)c1cc2c(cc1CC(Cc1ccc3c(c1)CCCC3)C(=O)O)CCCC2 (stereo not given) | > 200 | 51.3 µM | – |
| NS(=O)(=O)c1nnc(NSc2ccc([N+](=O)[O-])cc2)s1 | > 200 | 46.8 µM | – |
| CCCCCCCCCCCCNC(=S)OCCCC | – | – | inactive |
| N#CC12C3C4C5C3C1n1c(=O)n(-c3ccccc3)c(=O)n1C5C42 (stereo not given) | > 200 | > 200 µM | – |
| CNC(=O)N(CCC#N)CCCN(C(=O)N(C)C)c1ccccc1 | > 200 | > 200 µM | – |
| CCOC(=O)c1c(N)[nH]c(SSc2[nH]c(N)c(C(=O)OCC)c2C(=O)OCC)c1C(=O)OCC | > 200 | 0.417 µM | – |
| CC(=O)N1CCSC(C(=O)Nc2ccccc2)=C1C | > 646 | > 646 µM | – |

| Structure (SMILES) | EC50 [µM] | IC50 | outcome |
| --- | --- | --- | --- |
| COc1cc(OC)c2c(=O)c3c([N+](=O)[O-])cccc3n(C)c2c1 | > 100 | > 100 µM | – |
| CN1Cc2ccccc2C2(COc3ccccc3C2=O)C1 (stereo not given) | – | – | inactive |
| O=C(O)C1(C(=O)O)CC2C3C=CC(C3)C2C1 (stereo not given) | > 398 | > 398 µM | – |
| O=c1ccc2ccc(S)cc2o1 | > 200 | 32.4 µM | – |
| CCOC(=O)N1CCN(c2c(C)nc(C)[nH]c2=O)CC1 | > 200 | > 200 µM | – |
| N#C/C(=C\NC(N)=S)C(=O)c1ccc2ccccc2c1 | – | – | inactive |
| CC(C)CC(NC(=O)C(Cc1ccccc1)NC(=O)C1CCCN1C(=O)OCc1ccccc1)C(=O)OC(C)(C)C (stereo not drawn) (Cbz-Pro-Phe-Leu-OtBu; configuration not given here) | > 6.61 | > 6.61 µM | – |
| CCOC(=O)/C(=C/c1ccc([N+](=O)[O-])cc1)N(CC)CC | > 324 | > 324 µM | – |
| C/C(CC(=O)Nc1ccc(C)cc1)=N\NC(N)=S | > 490 | 245 µM | – |
| C=C1C(=O)OC2(C)CCC1CC1OC1(C)CCC=C(C)CCC2O (stereo not given) | > 389 | 32.4 µM | – |
| O=C1C(=O)N(c2ccc(Cl)cc2)C(=O)C(=Nc2cccc3c(=O)[nH][nH]c(=O)c23)C1c1nc2ccccc2o1 (stereo not given) | – | – | inactive |
| O=c1[nH]nc2c3n[nH]c(=O)n3c3ccccc3n12 | > 14.8 | > 14.8 µM | – |
| CCOC(=O)C(NC(=O)Nc1ccccc1)(Nc1cccc(Cl)c1)C(F)(F)F (stereo not given) | > 200 | 195 µM | – |
| NCCCCC(NC(=O)C(CO)NC(=O)C(N)Cc1cnc[nH]1)C(=O)NC(Cc1ccccc1)C(=O)NC(Cc1c[nH]c2ccccc12)C(=O)NC(Cc1c[nH]c2ccccc12)C(N)=O (stereo not given) (H-HSKFWW-NH2; configuration not given here) | > 50.1 | > 50.1 µM | – |
| Cc1ccc(S(=O)(=O)/C(C#N)=C/n2ccc(=O)[nH]c2=S)cc1 | > 200 | > 200 µM | – |
| Cc1c(C(=O)c2ccccc2)n(COCCC[Se]c2ccccc2)c(=O)[nH]c1=O | > 200 | 18.2 µM | – |
| COC(=O)C1=COC(C)C2C[n+]3ccc4c([nH]c5ccccc54)c3CC12 (stereo not given) | > 200 | > 200 µM | – |
| CCOC(=O)c1c(SCCN2CCOCC2)n(-c2ccccc2)c(=S)n(-c2ccccc2)c1=O | > 27.5 | > 27.5 µM | – |
| Cc1c([N+](=O)[O-])oc2c1C(=O)NCCC2 | > 437 | 70.8 µM | – |
| CCOC(=O)/N=c1/nc2ccn(C)c2c(NC(=O)OCC)s1 | > 209 | > 209 µM | – |
| CCC1(CC)SCC(=O)NC1=O | > 200 | > 200 µM | – |

| Structure (SMILES) | EC50 [µM] | IC50 | outcome |
| --- | --- | --- | --- |
| CC1=NNC(N)=N/C1=C\C(Sc1ccc(Cl)cc1)c1ccc(Cl)cc1Cl (stereo not given) | > 112 | 18.6 µM | – |
| COc1nc(NC2OC(CO)C(O)C2O)cc(=O)n1C (stereo not given) | – | – | inactive |
| CCn1cnc2[nH]cc(C#N)c2c1=O | > 200 | > 200 µM | – |
| CCCCCC[N+]1(C)CC2C3C=CC(C3)C2C1 (stereo not given) | > 245 | > 100 µM | – |
| C[PH+](C)CC[PH+](C)CC[PH+](C)C.[C-]#[O+].[C-]#[O+].[C-]#[O+].[Cr] | > 2.88 | > 2.88 µM | – |
| COc1cc(Br)c(C=Nc2cccc3cc(OC)c(OC)cc23)cc1OC | > 31.6 | > 31.6 µM | – |
| CCOc1ccc(Nc2nc3c(s2)C(=O)c2ccccc2C3=O)cc1 | > 110 | 9.55 µM | – |
| CC(C)(C)NN=C1C(C)(C)C(=NNC(C)(C)C)C1(C)C | > 316 | > 316 µM | – |
| COC(=O)C1C(OC(=O)c2ccccc2)CC2CCC1N2C(N)=O (stereo not given) | > 200 | > 200 µM | – |
| CC(=O)Oc1ccc2c(C)cc(=O)oc2c1 | > 200 | 170 µM | – |
| Cc1ncc2c(n1)CCC1=C2OS(=O)(=O)CC1N(C)C (stereo not given) | > 200 | 38.9 µM | – |
| COC(=O)C(=O)C(C(=O)C=C(C)C)C(=O)C(=O)Nc1nc2ccc([N+](=O)[O-])cc2s1 (stereo not given) | > 60.3 | > 60.3 µM | – |
| CCOc1ccc(NC(=S)/N=C/C(C(=O)Nc2ccccc2C)=C(\C)O)cc1 | > 200 | > 200 µM | – |
| COc1ccc(Nc2nc3ccc(C(F)(F)F)cc3nc2C(=O)O)cc1 | > 200 | 20.4 µM | – |
| O=C1OC(N=P(c2ccccc2)(c2ccccc2)c2ccccc2)C(N=P(c2ccccc2)(c2ccccc2)c2ccccc2)=C1Cl (stereo not given) | > 20 | 18.2 µM | – |
| ClCC1(CCl)COC1 | > 1620 | > 1620 µM | – |
| CC(C)CCC[C@@H](C)C1CCC2[C@@H]3CC=C4C[C@@H](OP(=O)([O-])OCC[N+](C)(C)C)CC[C@]4(C)C3CC[C@@]21C (stereo not given in full) | > 39.8 | 20.4 µM | – |
| [N-]=[N+]=Nc1cc(=O)[nH]c2ccccc12 | > 200 | > 200 µM | – |
| O=C1NC(=O)C2C1N(Cc1ccccc1)C(=O)N2Cc1ccccc1 (stereo not given) | > 107 | > 107 µM | – |
| CC(C)CC(NC(=O)C(CCC(=O)OCc1ccccc1)NC(=O)OC(C)(C)C)C(=O)NC(COCc1ccccc1)C(=O)NC(Cc1ccccc1)C(=O)O (stereo not given) (Boc-E(OBn)LS(Bn)F-OH; configuration not given here) | > 200 | > 200 µM | – |
